Assay results: patent publication US6620828B2, “Thiazole compounds and pharmaceutical compositions for inhibiting protein kinases and methods for their use” (Agouron Pharmaceuticals, Inc., priority 1999, dated 2003)

Experiments:
[1] = biological target: T1, phosphorylated VEGF-R2Δ50 (FLVK-P) (Homo sapiens, UniProt P35968, DEL940-989/E990V); assay: VEGF-R2 coupled spectrophotometric (FLVK-P) assay; format: biochemical; conditions: Table 1; spectrophotometric assay
T1 construct: VEGF-R2Δ50 contains residues 806-939 and 990-1171; made in house; host or cells: baculovirus/insect cells
T1 sequence (P35968 with tags, fused parts or gaps DEL940-989/E990V limits assumed): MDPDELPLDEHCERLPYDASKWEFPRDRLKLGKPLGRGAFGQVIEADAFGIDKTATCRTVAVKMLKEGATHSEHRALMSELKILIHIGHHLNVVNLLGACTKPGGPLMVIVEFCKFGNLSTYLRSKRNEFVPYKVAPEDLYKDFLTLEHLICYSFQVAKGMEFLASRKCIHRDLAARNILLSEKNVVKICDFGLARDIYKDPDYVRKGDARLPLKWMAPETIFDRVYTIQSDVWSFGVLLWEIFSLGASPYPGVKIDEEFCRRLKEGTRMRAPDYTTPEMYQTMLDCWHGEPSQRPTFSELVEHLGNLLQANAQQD
Outline: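 Baculovirus-expressed human VEGF-R2Δ50 (residues 806-939/990-1171, E990V) was autophosphorylated with 3 mM ATP, 40 mM MgCl2 for 2 h at 4° C. ADP formation was coupled via PK/LDH to NADH oxidation, read at 340 nm, with 5.1 mM poly(E4Y1), 1 mM ATP, 25 mM MgCl2, Hepes pH 7.5. Ki came from activity across compound concentrations.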

[2] = tested on: lung cancer cells (line MV522); assay: Cancer cell proliferation (MV522) assay; format: cell-based
Procedure: Cancer Cell Proliferation (MV522) Assay
The protocol for assessing cellular proliferation in cancer cells is similar to that used for assessments in HUVEC cells. Two thousand lung cancer cells (line MV522, acquired from American Tissue Cultural Collection) were seeded in growth media (RPMI1640 medium supplemented with 2 mM glutamine and 10% FBS). Cells are allowed to attach for 1 day prior to addition of test agents and/or vehicles. Cells are treated simultaneously with the same test agents used in the HUVEC assay. Cellular proliferation is quantified by MTT dye reduction assay 72 hours after exposure to test agents. The total length of the assay is 4 days vs. 5 for HUVEC cells because MV522 cells are not exposed to starvation medium.

[3] = tested on: human umbilical vein endothelial cells (HUVEC); assay: HUVEC proliferation assay; format: cell-based; conditions: Homo sapiens, HUVEC
Outline: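 Readout was MTT dye reduction (A595) after 72 h of stimulation with VEGF at 6 ng/ml final. Compound, in 0.1% DMSO final, was added 1 h before VEGF to HUVEC starved 24 h in 1% FBS. % inhibition was scaled between VEGF-alone and unstimulated wells; IC50 was fitted from triplicate dose curves.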

[4] = biological target: T2, unphosphorylated VEGF-R2Δ50 (FLVK) (Homo sapiens, UniProt P35968, DEL940-989/E990V); assay: VEGF-R2 coupled spectrophotometric assay, unphosphorylated enzyme (FLVK); format: biochemical; conditions: Table 3; some entries 'Slow binder'
T2 construct: VEGF-R2Δ50 contains residues 806-939 and 990-1171; made in house; host or cells: baculovirus/insect cells
T2 sequence (P35968 with tags, fused parts or gaps DEL940-989/E990V limits assumed): as above
Outline: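 Unphosphorylated VEGF-R2Δ50 (5 to 40 nM) with 20 mM poly(E4Y1), 3 mM ATP, 60 mM MgCl2, 2 mM MnCl2 in 200 mM Hepes pH 7.5. ADP production coupled via PK/LDH to NADH oxidation, read at 340 nm. Ki from activity at varying compound concentrations.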

SMILES | Ki [1] [nM] | IC50 ([2]; MV522, Table 1) [nM] | IC50 ([2]; MV522, Table 3) [nM] | Ki [4] [nM] | IC50 ([3]; Table 1) [nM] | IC50 ([3]; Table 3) [nM]
Nc1nc(Nc2ccc(S(N)(=O)=O)cc2)sc1-c1nc(-c2cccc(NC(=O)OCc3ccccc3)c2)cs1 [D(25), {3-[4′-Amino-2′-(4-sulfamoyl-phenylamino)-[2,5′]bithiazolyl-4-yl]-phenyl}-carbamic acid benzyl ester] | 1 | > 10000 |  |  | 745 | 
COc1cc(Nc2nc(N)c(-c3nc(-c4cccc(NC(=O)OC(C)(C)C)c4)no3)s2)cc(OC)c1OC [B(2), 3-(3-tert-Butyloxycarboxy-aminophenyl)-5-[2-[(3,4,5-trimethoxyphenyl)amino]-4-amino-5-thiazolyl]-1,2,4-oxadiazole] | 16.5 | 3650 |  |  | > 700 | 
COc1cc(Nc2nc(N)c(-c3nc(-c4cccc(NC(=O)c5cccc(C(C)C)c5)c4)cs3)s2)cc(OC)c1OC [D(27), N-{3-[4′-Amino-2′-(3,4,5-trimethoxy-phenylamino)-[2,5′]bithiazolyl-4-yl]-phenyl}-3-isopropyl-benzamide] | 1.8 | > 10000 |  |  | 82 | 
COc1cc(Nc2nc(N)c(-c3nc(-c4cccc(NS(C)(=O)=O)c4)cs3)s2)cc(OC)c1OC [D(3), N-{3-[4′-Amino-2′-(3,4,5-trimethoxy-phenylamino)-[2,5′]bithiazolyl-4-yl]-phenyl}-methanesulfonamide] | 63 | > 10000 |  |  | > 700 | 
COc1cc(Nc2nc(N)c(-c3nc(-c4cccc(NC(=O)OC(C)(C)C)c4)cs3)s2)cc(OC)c1OC [D(43), {3-[4′-Amino-2′-(3,4,5-trimethoxy-phenylamino)-[2,5′]bithiazolyl-4-yl]-phenyl}-carbamic acid tert-butyl ester] | 2.9 | > 10000 |  |  | 241 | 
COc1ccc(Nc2nc(N)c(-c3nc(-c4cccc(NC(=O)c5ccccc5)c4)cs3)s2)cc1OC [A(47), N-{3-[4′-Amino-2′-(3,4-dimethoxy-phenylamino)-[2,5′]bithiazolyl-4-yl]-phenyl}-benzamide] | 7.9 | > 10000 |  |  | 260 | 
COc1cc(Nc2nc(N)c(-c3nc(-c4cccc(NC(=O)c5cccc(Cl)c5)c4)no3)s2)cc(OC)c1OC [D(50), 3-[3-(3-Chlorobenzamido)phenyl]-5-[2-[(3,4,5-trimethoxyphenyl)amino]-4-amino-5-thiazolyl]-1,2,4-oxadiazole] | 1.4 | > 10000 |  |  | 17 | 
COc1cc(Nc2nc(N)c(-c3nc(-c4cccc(NC(=O)c5ccccc5)c4)no3)s2)cc(OC)c1OC [D(46), 3-[3-Benzamidophenyl]-5-[2-[(3,4,5-trimethoxyphenyl)amino]-4-amino-5-thiazolyl]-1,2,4-oxadiazole] | 17.1 | > 10000 |  |  | 123 | 
CNc1nc(N)c(-c2nc(-c3cc(NC(=O)c4cccc(OC)c4)ccc3C)no2)s1 [B(17), N-(3-{5-[4-Amino-2-(3,4,5-methylamino)-thiazol-5-yl]-[1,2,4]oxadiazol-3-yl]-4-methyl-phenyl}-3-methoxy-benzamide] |  |  | 1300 | 3.4 |  | 63
COc1cc(Nc2nc(N)c(-c3nc(-c4cccc(NC(=O)c5cccc(Br)c5)c4)cs3)s2)cc(OC)c1OC [D(29), N-{3-[4′-Amino-2′-(3,4,5-trimethoxy-phenylamino)-[2,5′]bithiazolyl-4-yl]-phenyl}-3-bromo-benzamide] | 1.4 | > 10000 |  |  | 32 | 

More lines, main results first:

Ki [1] [nM] | IC50 ([2]; MV522, Table 1) [nM] | IC50 ([2]; MV522, Table 3) [nM] | Ki [4] [nM] | SMILES | IC50 ([3]; Table 1) [nM] | IC50 ([3]; Table 3) [nM]
1.6 | > 10000 |  |  | COc1cc(Nc2nc(N)c(-c3nc(-c4cccc(NC(=O)c5cccc(C(F)(F)F)c5)c4)no3)s2)cc(OC)c1OC [D(49), 3-[3-(3-Trifluoromethylbenzamido)phenyl]-5-[2-[(3,4,5-trimethoxyphenyl)amino]-4-amino-5-thiazolyl]-1,2,4-oxadiazole] | 15 | 
4.1 | > 10000 |  |  | COc1cccc(C(=O)Nc2cccc(-c3noc(-c4sc(Nc5cc(OC)c(OC)c(OC)c5)nc4N)n3)c2)c1 [D(48), 3-[3-(3-Methoxybenzamido)phenyl]-5-[2-[(3,4,5-trimethoxyphenyl)amino]-4-amino-5-thiazolyl]-1,2,4-oxadiazole] | 40 | 
0.85 | 9000 |  |  | COc1cc(Nc2nc(N)c(-c3nc(-c4cccc(NC(=O)c5ccc(C)s5)c4)cs3)s2)cc(OC)c1OC [D(34), 5-Methyl-thiophene-2-carboxylic acid {3-[4′-amino-2′-(3,4,5-trimethoxy-phenylamino)-[2,5′]bithiazolyl-4-yl]-phenyl}-amide] | 89 | 
1.8 | > 10000 |  |  | COc1cc(Nc2nc(N)c(-c3nc(-c4cccc(NC(=O)c5ccc(Cl)s5)c4)cs3)s2)cc(OC)c1OC [D(35), 5-Chloro-thiophene-2-carboxylic acid {3-[4′-amino-2′-(3,4,5-trimethoxy-phenylamino)-[2,5′]bithiazolyl-4-yl]-phenyl}-amide] | 42 | 
1.9 | > 10000 |  |  | COc1cccc(C(=O)Nc2cccc(-c3csc(-c4sc(Nc5cc(OC)c(OC)c(OC)c5)nc4N)n3)c2)c1 [D(41), N-{3-[4′-Amino-2′-(3,4,5-trimethoxy-phenylamino)-[2,5′]bithiazolyl-4-yl]-phenyl}-3-methoxy-benzamide] | 37 | 
3.9 | > 10000 |  |  | COc1cc(C(=O)Nc2cccc(-c3csc(-c4sc(Nc5cc(OC)c(OC)c(OC)c5)nc4N)n3)c2)ccc1C [D(32), N-{3-[4′-Amino-2′-(3,4,5-trimethoxy-phenylamino)-[2,5′]bithiazolyl-4-yl]-phenyl}-3-methoxy-4-methyl-benzamide] | 59 | 
2 | > 10000 |  |  | COc1cc(Nc2nc(N)c(-c3nc(-c4cccc(NC(=O)c5ccc(Br)s5)c4)cs3)s2)cc(OC)c1OC [D(36), 5-Bromo-thiophene-2-carboxylic acid {3-[4′-amino-2′-(3,4,5-trimethoxy-phenylamino)-[2,5′]bithiazolyl-4-yl]-phenyl}-amide] | 43 | 
2.9 | > 10000 |  |  | COc1cc(Nc2nc(N)c(-c3nc(-c4cccc(NC(=O)c5ccc(Cl)c(C)c5)c4)cs3)s2)cc(OC)c1OC [D(30), N-{3-[4′-Amino-2′-(3,4,5-trimethoxy-phenylamino)-[2,5′]bithiazolyl-4-yl]-phenyl}-4-chloro-3-methyl-benzamide] | 48 | 
1.4 | > 10000 |  |  | CCc1cccc(C(=O)Nc2cccc(-c3csc(-c4sc(Nc5cc(OC)c(OC)c(OC)c5)nc4N)n3)c2)c1 [D(39), N-{3-[4′-Amino-2′-(3,4,5-trimethoxy-phenylamino)-[2,5′]bithiazolyl-4-yl]-phenyl}-3-ethyl-benzamide] | 62 | 
3.7 | > 10000 |  |  | Nc1nc(Nc2ccccc2)sc1-c1nc(-c2cccc(NC(=O)OCc3ccccc3)c2)cs1 [D(20), [3-(4′-Amino-2′-phenylamino-[2,5′]bithiazolyl-4-yl)-phenyl]-carbamic acid benzyl ester] | 990 | 
0.93 | > 10000 |  |  | COc1cc(Nc2nc(N)c(-c3nc(-c4cccc(NC(=O)c5cccc(C)c5)c4)cs3)s2)cc(OC)c1OC [D(38), N-{3-[4′-Amino-2′-(3,4,5-trimethoxy-phenylamino)-[2,5′]bithiazolyl-4-yl]-phenyl}-3-methyl-benzamide] | 40 | 
3.4 | > 10000 |  |  | COc1cc(Nc2nc(N)c(-c3nc(-c4cccc(NC(=O)c5ccc(Br)o5)c4)cs3)s2)cc(OC)c1OC [D(37), 5-Bromo-furan-2-carboxylic acid {3-[4′-amino-2′-(3,4,5-trimethoxy-phenylamino)-[2,5′]bithiazolyl-4-yl]-phenyl}-amide] | 150 | 
150 | > 10000 |  |  | COc1cc(Nc2nc(N)c(-c3nc(-c4cccc(NC(=O)O[C@H](C)c5ccccc5)c4)cs3)s2)cc(OC)c1OC [D(23), {3-[4′-Amino-2′-(3,4,5-trimethoxy-phenylamino)-[2,5′]bithiazolyl-4-yl]-phenyl}-carbamic acid 1-R-phenyl-ethyl ester] | 130 | 
 | 650 |  |  | COc1cc(Nc2nc(N)c(-c3nc(-c4cccc(NC(C)=O)c4)no3)s2)cc(OC)c1OC [D(45), 3-[3-Acetamidophenyl]-5-[2-[(3,4,5-trimethoxyphenyl)amino]-4-amino-5-thiazolyl]-1,2,4-oxadiazole] | 235 | 
